Experimental data reported in patent US20260109695A1, “PEROXIREDOXIN 3 INHIBITORS AND METHODS OF USE FOR TREATING CANCER” (WAKE FOREST UNIVERSITY HEALTH SCIENCES, priority 2022, published 2026).
Values after ≈ are worked out from the molar mass of the structure shown.

Legend:
[1] = system: human SK-OV-3 ovarian cancer cells; experiment: Cellular Activity Assay (cytotoxicity, crystal violet); format: cell-based; settings: SK-OV-3 cells, 48 hr treatment
Text: (§1) To test the activity of compounds, two complimentary assays were used as described below. The Biochemical PRX3 Inhibition Assay tests the ability of each compound to crosslink PRX3 in a simple, in vitro system. In the Cellular Activity Assay, we are testing the ability of compounds to kill SK-OV-3 ovarian cancer cells.
The Cellular Activity Assay measures the EC50 of each compound in human SK-OV-3 ovarian cancer cells TS to be taken into the cell, transported to the mitochondria, and crosslink PRX3.
The cytotoxicity of compounds was measured as described in Nelson et al. (2021) Antioxidants (Basel) 10, 150; Cunniff et al. (2015) PloS one 10, e0127310; and Newick et al. (2012) PloS one 7, e39404. SK-OV-3 is an adherent, epithelial, adenocarcenoma cell line obtained from ATCC (ref #: HTB-77). SK-OV-3 cells are resistant to the commonly used chemotherapeutics, cis-platinum and doxorubicin. For this PRX3 crosslinking assay, SK-OV-3 cells were plated in a 96-well plate. After 24 h recovery, the cells were treated for 48 hr with multiple concentrations of each compound ranging from 0.1-100 μM.
Cells were washed with PBS to remove dead cells and the remaining live cells were fixed with 3.0% formaldehyde and stained with 0.1% crystal violet. The amount of crystal violet was determined by reading the absorbance at 540 nm (crystal violet dye dissolved in 100% methanol) using a plate reader. The signal for crystal violet dye is proportional to the biomass of remaining live cells. GraphPad Prism9 software was used to calculate the effective inhibitory concentration (EC50) of test compounds. Results for each compound, are normalized to the amount of cells in control wells treated with the equivalent concentration of DMSO (negative control). TS or Compound B were included in each set of assays as a positive control.

purified human PRX3 = target: T1, purified human PRX3 (Homo sapiens, UniProt P30048); experiment: Biochemical PRX3 Inhibition Assay (crosslink by SDS-PAGE, mono-adduct by MALDI-TOF MS); settings: 1-2 hr at 37° C.
T1 construct: made in house
T1 sequence (P30048 62-256): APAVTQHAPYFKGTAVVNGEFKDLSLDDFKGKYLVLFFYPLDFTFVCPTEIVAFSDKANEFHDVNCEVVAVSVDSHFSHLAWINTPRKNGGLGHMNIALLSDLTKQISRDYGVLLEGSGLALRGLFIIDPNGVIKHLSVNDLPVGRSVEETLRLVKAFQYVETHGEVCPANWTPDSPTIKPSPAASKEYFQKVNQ
Protocol: as §1
This assay tests the ability of each compound to form a covalent adduct with PRX3. The assay is performed as described in Nelson et al. (2021) Antioxidants (Basel) 10, 150; and Cunniff et al. (2015) PloS one 10, e0127310, and follows the appearance of non-reducible PRX3 crosslinks by SDS PAGE gel electrophoresis and follows the appearance of single PRX3 adducts by mass spectrometry. For this assay, purified human PRX3, hydrogen peroxide (the PRX3 substrate) and all the components required to enable PRX3 to catalytically cycle (thioredoxin-thioredoxin reductase-NAPDH system) are included (details below).
The biochemical PRX3 Inhibition assay contains 100 µM PRX3, 50 µM human TRX2, […] mouse thioredoxin reductase, and a NADPH regenerating system composed of 3.2 mM glucose 6-phosphate, 3.2 U/ml glucose 6-phosphate dehydrogenase and 0.4 mM NADPH. Samples are incubated for 1-2 hr at 37° C. with either 0.2 mM TS (positive control), compounds or an equivalent volume of DMSO (negative control). During this incubation, hydrogen peroxide is added to induce turnover of PRX3. Reactions are stopped by the addition of a buffer containing 100 mM dithiolthreitol (to break disulfide bonds) and SDS (detergent to denature proteins). NADPH, Glucose 6-Phosphate, and glucose 6-phosphate dehydrogenase were purchased from Sigma Aldrich. PRX3, thioredoxin, and thioredoxin reductase were all purified to >98% purity in the Lowther laboratory according to protocols referenced in Nelson et al. (2021) Antioxidants (Basel) 10, 150; and Cunniff et al. (2015) PloS one 10, e0127310.
To measure the amount of PRX3 crosslink, proteins in the reaction were separated by SDS-polyacrlyamide gel electrophoresis and stained for total protein using GelCode Blue (Life Technologies). The amount of unmodified PRX3 and TS-PRX3 crosslink was measured by densiometric analysis of the signal for the PRX3 band running at the MW of a PRX3 crosslink (−46 kDa) compared to the PRX3 signal at the MW of the un-modified PRX3 (˜23 kD).
To measure covalent adduct formation on a single PRX3 monomer, each reaction was exchanged into a mass spectrometry compatible buffer containing 40 mM ammonium citrate, pH 8.3 made in HPLC water. Sample was mixed 1:1 with a matrix solution containing 30 mg/mL sinapinic acid in 70% (vol/vol) acetonitrile, 0.2% formic acid and spotted to onto the sample plate. PRX3 mass was measured by MALDI-TOF MS analysis on a Bruker Daltonics MALDI-TOF MS spectrometer. Spectra were analyzed in FLEXAnalysis Software. The intensity of the reduced PRX3 peak (SH) and intensity of the analog adduct peak was determined and corrected for background signal at the adduct peak in the DMSO control. The fraction of single analog adduct in the monomer peak was determined by dividing the intensity of the adduct peak by the summed intensity of the SH and adduct peaks.

Solubility Assay = format: physicochemical; settings: 20 mM HEPES, 100 mM NaCl, pH 7.5, 18-24 hours at ambient temperature
Protocol: A 20 mM stock solution was made for each compound in DMSO. To measure solubility, 0.03-0.05 mL of the stock was added to 0.27 mL 20 mM HEPES, 100 mM NaCl, pH 7.5. The solution was mixed and rotated 18-24 hours at ambient temperature. The next day, solutions were centrifuged for 10 min at 20,000×g at 24° C. to remove insoluble, solid material. Next, 100 μL of the supernatant containing the soluble compound was added to 900 μL DMSO and High Performance Liquid Chromatography was performed as described in Table 1 and either HPLC gradient 1 (Table 2) for HPLC gradient 2 (Table 3). For each analog, a 200 μM standard and a 20 μM standard were prepared and run in parallel (standards were dissolved completely in 100% DMSO). The amount of compound in the experimental sample was calculated by comparing the area under the curve for compound peak to the area for the closest standard and correcting for dilution.

[2] = system: Enterococcus hirae (ATCC #10541); experiment: Antimicrobial Activity Assay; format: cell-based
Protocol: The overnight growth was then diluted into growth media to make a single solution of E. hirae with a final optical density at 600 nm=0.02 AU. A 20 mM stock solution of Thiostrepton in DMSO was made and used to make multiple dilutions of TS in DMSO. Each TS dilution (0.1 mL) was then added to a test tube containing 10 mL of the diluted E. hirae and grown at 37° C. overnight while shaking at 180 rpm. The next morning, each tube was visually inspected to determine if the cells grew. Final concentrations tested were 0.120, 0.090, 0.075, 0.060, 0.045, 0.030, and 0.015 μM TS. […] Three replicates were made on three separate days (n=9). […] For TS analogs, the dilute E. hirae was treated with 20 µM final concentration of each analog (three replicates each). […] DMSO was used as a positive control (complete cell growth) and 20 µM thiostrepton was used as a negative control.

578 cancer cells lines = settings: of 578 cancer cells lines tested; cited from earlier work
[3] = E. hirae, overnight at 37° C., n=9

## C=C(NC(=O)C(=C)NC(=O)c1csc(C2=N[C@@H]3c4csc(n4)[C@H]4NC(=O)c5csc(n5)[C@H]([C@](C)(O)[C@@H](C)O)NC(=O)[C@H]5CSC(=N5)/C(=C/C)NC(=O)[C@H]([C@@H](C)O)NC(=O)c5csc(n5)[C@]3(CC2)NC(=O)[C@H](C)NC(=O)C(=C)NC(=O)[C@H](C)NC(=O)[C@H]([C@@H](C)CC)N[C@@H]2C=Cc3c([C@H](C)O)cc(nc3[C@H]2O)C(=O)O[C@@H]4C)n1)C(N)=O [Thiostrepton, reference compound]
[1]
  EC50: 1 to 10 µM
Purified human PRX3
  PRX3 Inhibition (Crosslink + Mono-adduct): ++ (50-90%)
Solubility Assay
  solubility: + (<0.1 mM)
[2]; [3]
  TS concentrations at which complete growth was observed: ≤ 0.030 µM
  TS concentrations at which no growth was observed: ≥ 0.045 µM
[2]; Enterococcus hirae, ATCC10541, read-out: Antimicrobial Activity
  MIC: 0.02 to 0.2 µM (≈ 0.0333 to 0.333 µg/mL)
578 cancer cells lines
  Number of tumor cells lines with meaningful efficacy: 403
